Like-named read-outs stand apart in the source and are kept apart here.

Experiment [1] addresses T1, myo1D (myosin-1D; myo31DF) (Drosophila melanogaster, UniProt Q23978). Particulars: read-out: Myo1D; rapid-equilibrium binding step to actomyosin (printed in μM, used as association constant in Equation 2); KMg25 pH 7.0, 1 mM MgCl2; 20 C.
Excerpt: stopped-flow MgATP-induced dissociation from pyrene-actin, hyperbolic fit on myo1D (myosin-1D; myo31DF)
The target of experiment [2] is myo1C (myosin-1C; myo61F) (Drosophila melanogaster, UniProt Q23979). The note with it: read-out: Myo1C; rapid-equilibrium binding step to actomyosin (printed in μM, used as association constant in Equation 2); KMg25 pH 7.0, 1 mM MgCl2; 20 C.
Excerpt: stopped-flow MgATP-induced dissociation from pyrene-actin, hyperbolic fit on myo1C (myosin-1C; myo61F)
The target of experiment [3] is T1, myo1D (myosin-1D; myo31DF). Put plainly: stopped-flow pyrene-actin fluorescence, slow-phase amplitude vs MgADP, quadratic fit. In kind it is binding. Details: full-length, C-terminal FLAG-Avi tags kept (biotinylated for gliding); baculovirus, Sf9 or Hi5 insect cells; heavy chain 117 kDa, calmodulin light chains; with Calmodulin (Gallus gallus, recombinant); Actin, alpha skeletal muscle (Oryctolagus cuniculus). Particulars: actomyosin complex; chased with 1 mM MgATP; KMg25: 10 mM Mops pH 7.0, 25 mM KCl, 1 mM MgCl2, 1 mM EGTA, 1 mM DTT; 20 C.

T1 sequence (Q23978 whole entry): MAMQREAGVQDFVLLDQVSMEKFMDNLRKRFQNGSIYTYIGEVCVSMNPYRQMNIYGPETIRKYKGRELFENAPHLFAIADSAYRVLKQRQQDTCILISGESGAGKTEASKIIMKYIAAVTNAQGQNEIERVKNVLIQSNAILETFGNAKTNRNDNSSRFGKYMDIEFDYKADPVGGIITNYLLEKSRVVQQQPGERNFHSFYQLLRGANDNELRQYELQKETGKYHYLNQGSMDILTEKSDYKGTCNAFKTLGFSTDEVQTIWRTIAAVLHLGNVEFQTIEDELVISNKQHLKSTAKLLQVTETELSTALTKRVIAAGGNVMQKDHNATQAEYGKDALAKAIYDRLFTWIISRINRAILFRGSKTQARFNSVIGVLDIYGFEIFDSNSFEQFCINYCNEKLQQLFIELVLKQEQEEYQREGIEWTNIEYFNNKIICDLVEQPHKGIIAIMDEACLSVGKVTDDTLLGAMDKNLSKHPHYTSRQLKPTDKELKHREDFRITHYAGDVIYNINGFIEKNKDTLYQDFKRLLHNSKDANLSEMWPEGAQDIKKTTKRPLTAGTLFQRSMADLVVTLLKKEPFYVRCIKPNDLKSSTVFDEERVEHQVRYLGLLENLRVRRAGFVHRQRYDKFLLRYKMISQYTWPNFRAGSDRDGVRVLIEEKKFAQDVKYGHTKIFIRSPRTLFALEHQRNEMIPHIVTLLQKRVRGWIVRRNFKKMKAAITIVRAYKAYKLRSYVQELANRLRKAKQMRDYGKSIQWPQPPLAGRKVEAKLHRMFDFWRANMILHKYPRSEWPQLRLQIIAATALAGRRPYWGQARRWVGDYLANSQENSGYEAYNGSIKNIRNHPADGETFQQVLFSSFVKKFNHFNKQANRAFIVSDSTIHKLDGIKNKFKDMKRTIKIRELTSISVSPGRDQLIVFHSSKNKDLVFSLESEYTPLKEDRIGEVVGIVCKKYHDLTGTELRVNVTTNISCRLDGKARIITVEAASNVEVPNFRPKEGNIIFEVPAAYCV
myo1C (myosin-1C; myo61F), sequence (Q23979 whole entry): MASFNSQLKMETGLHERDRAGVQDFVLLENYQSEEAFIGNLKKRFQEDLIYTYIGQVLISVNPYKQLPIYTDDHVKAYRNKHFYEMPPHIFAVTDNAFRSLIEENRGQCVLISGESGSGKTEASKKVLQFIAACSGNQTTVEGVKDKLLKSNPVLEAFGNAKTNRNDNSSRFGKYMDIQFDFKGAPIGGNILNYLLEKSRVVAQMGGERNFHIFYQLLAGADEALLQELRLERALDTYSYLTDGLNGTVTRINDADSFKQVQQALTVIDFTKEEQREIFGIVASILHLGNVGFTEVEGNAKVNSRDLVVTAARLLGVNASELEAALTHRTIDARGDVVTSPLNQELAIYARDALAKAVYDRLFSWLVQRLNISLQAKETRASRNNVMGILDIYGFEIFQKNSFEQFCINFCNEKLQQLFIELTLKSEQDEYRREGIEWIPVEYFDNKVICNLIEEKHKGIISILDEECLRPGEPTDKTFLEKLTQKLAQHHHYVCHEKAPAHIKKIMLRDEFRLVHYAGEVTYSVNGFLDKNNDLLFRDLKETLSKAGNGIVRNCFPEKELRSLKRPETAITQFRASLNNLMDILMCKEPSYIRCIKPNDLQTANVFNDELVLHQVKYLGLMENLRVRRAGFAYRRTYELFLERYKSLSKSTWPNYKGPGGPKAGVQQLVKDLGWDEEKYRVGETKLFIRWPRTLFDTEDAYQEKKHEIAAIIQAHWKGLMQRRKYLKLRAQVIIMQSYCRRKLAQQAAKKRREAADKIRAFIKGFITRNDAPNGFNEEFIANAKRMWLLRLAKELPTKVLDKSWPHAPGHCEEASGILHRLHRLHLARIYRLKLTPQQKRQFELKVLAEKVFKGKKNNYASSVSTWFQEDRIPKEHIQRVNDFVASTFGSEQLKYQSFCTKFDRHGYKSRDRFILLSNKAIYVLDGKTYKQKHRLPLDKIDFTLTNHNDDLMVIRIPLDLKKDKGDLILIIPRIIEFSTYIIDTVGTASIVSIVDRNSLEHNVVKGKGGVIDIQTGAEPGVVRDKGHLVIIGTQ

Turning to `Nc1ncnc2c1ncn2[C@@H]1O[C@H](COP(=O)(O)OP(=O)(O)OP(=O)(O)O)[C@@H](O)[C@H]1O` [MgATP], the Kd worked out at 118 ± 15 µM in experiment [1] and 73 ± 11 µM in experiment [2].
For the compound `Nc1ncnc2c1ncn2[C@@H]1O[C@H](COP(=O)(O)OP(=O)(O)O)[C@@H](O)[C@H]1O` [MgADP], in experiment [3], the Kd worked out at 0.044 ± 0.002 µM.

The values are drawn from publication PMC10374968, “Drosophila class-I myosins that can impact left-right asymmetry have distinct ATPase kinetics” (The Journal of Biological Chemistry, 2023).
